Test results published in publication PMC12000319, “Proton conductance by human uncoupling protein 1 is inhibited by purine and pyrimidine nucleotides” (The EMBO Journal, 2025).
Where “and” joins values, the source holds several entries; their conditions need not be identical. Equal entries are not always repeated. Where two headings read alike, the source gives them in different places. Values belong to the molecule of their own block, whether it stands above or below them.

Experiments:
UCP1 [1] = target: T1, UCP1 (Homo sapiens, UniProt P25874); assay: Differential scanning fluorimetry (nanoDSF) thermal stability shift assay; format: binding; settings: for ΔTm at 1000 µM: read-out: thermal shift (ΔTm)
T1 construct: His8 (N, cleaved yes); Factor Xa protease cleavage site (N, cleaved yes); made in house; host or cells: Saccharomyces cerevisiae strain W303.1B
T1 sequence (P25874 1-307): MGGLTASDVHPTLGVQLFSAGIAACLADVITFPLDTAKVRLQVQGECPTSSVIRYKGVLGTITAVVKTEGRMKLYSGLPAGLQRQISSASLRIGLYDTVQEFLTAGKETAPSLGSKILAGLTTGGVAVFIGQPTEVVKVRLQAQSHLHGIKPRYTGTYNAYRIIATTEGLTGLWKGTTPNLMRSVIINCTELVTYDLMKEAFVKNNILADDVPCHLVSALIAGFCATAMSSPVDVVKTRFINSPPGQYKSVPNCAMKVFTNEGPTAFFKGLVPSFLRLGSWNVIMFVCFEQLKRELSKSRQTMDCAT

UCP1 [2] = target: T1, UCP1; assay: Isothermal titration calorimetry of nucleotide binding; design: isotherm data point (enthalpy change per injection): unit not given here; settings: for isotherm data point (enthalpy change per injection): representative isotherm;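 on all read-outs here: purified human UCP1 in cacodylate buffer with lauryl maltose neopentyl glycol and cardiolipin, titrated with nucleotides, isotherms fitted by one-site model yielding ΔH, Kd and stoichiometry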
[3] = target: T2, human uncoupling protein 1 (human, UniProt P25874); assay: cryo-EM structure; UCP1, PMb65 and PMb71 mixed stoichiometrically, overnight at 4 °C; complex separated by SEC (20 mM MES pH 6.0, 150 mM NaCl, 0.02% lauryl maltose neopentyl glycol, 0.02 mg/mL tetraoleoyl cardiolipin, 1 mM TCEP); 2 mM UTP and 2 mM D-maltose added; 3.03 Å; settings: both partners purified
T2 construct: human uncoupling protein 1 (UCP1, SLC25A7), Uniprot P25874; Detergent-solubilised, with tetraoleoyl cardiolipin; also called UCP1; SLC25A7; source: Saccharomyces cerevisiae W303.1B, purified from mitochondria (Ni Sepharose, on-column Factor Xa cleavage); not shown: His8, N-terminal, cleaved

[4] = ITC, pH 6.0, 20 °C, mean ± standard deviation of three biological repeats (Fig. 2A-E)
[5] = ITC, single biological repeats (source data Fig. 2F)

temperature shift (ΔTm) (UCP1 [1]; 1 mM nucleotide, pH 6.0, detergent-solubilised UCP1, mean of three biological repeats): 16.2 °C
ΔTm at 1000 µM (UCP1 [1]; pH 6, 1 mM nucleotide, pH 6.0, single repeats (source data Fig. 1D)): 16 °C
ΔTm at 1000 µM (UCP1 [1]; pH 6.5, 1 mM nucleotide, pH 6.5, single repeats (source data Fig. 1D)): 12 °C
ΔTm at 1000 µM (UCP1 [1]; pH 7, 1 mM nucleotide, pH 7.0, single repeats (source data Fig. 1D)): 7.8 °C
ΔTm at 1000 µM (UCP1 [1]; pH 7.5, 1 mM nucleotide, pH 7.5, single repeats (source data Fig. 1D)): 3.6 °C
binding affinity to UCP1 (in words) (UCP1 [2]; ITC): intermediary affinities
Kd (UCP1 [2]; [4]): 3.77 ± 0.12 µM
Kd (UCP1 [2]; [5]): 3.68 µM and 3.9 µM and 3.73 µM
isotherm data point (enthalpy change per injection) (UCP1 [2]; Molar ratio (Nucleotide/UCP) 0.120417, pH 6.0, 20 °C): -20.3045
isotherm data point (enthalpy change per injection) (UCP1 [2]; Molar ratio (Nucleotide/UCP) 0.181226, pH 6.0, 20 °C): -19.4276
isotherm data point (enthalpy change per injection) (UCP1 [2]; Molar ratio (Nucleotide/UCP) 0.242439, pH 6.0, 20 °C): -18.5029
isotherm data point (enthalpy change per injection) (UCP1 [2]; Molar ratio (Nucleotide/UCP) 0.304059, pH 6.0, 20 °C): -18.707
isotherm data point (enthalpy change per injection) (UCP1 [2]; Molar ratio (Nucleotide/UCP) 0.366087, pH 6.0, 20 °C): -18.3445
isotherm data point (enthalpy change per injection) (UCP1 [2]; Molar ratio (Nucleotide/UCP) 0.428528, pH 6.0, 20 °C): -17.3071
isotherm data point (enthalpy change per injection) (UCP1 [2]; Molar ratio (Nucleotide/UCP) 0.491383, pH 6.0, 20 °C): -16.412
isotherm data point (enthalpy change per injection) (UCP1 [2]; Molar ratio (Nucleotide/UCP) 0.554656, pH 6.0, 20 °C): -17.0687
isotherm data point (enthalpy change per injection) (UCP1 [2]; Molar ratio (Nucleotide/UCP) 0.618348, pH 6.0, 20 °C): -15.1625
isotherm data point (enthalpy change per injection) (UCP1 [2]; Molar ratio (Nucleotide/UCP) 0.682464, pH 6.0, 20 °C): -14.4377
isotherm data point (enthalpy change per injection) (UCP1 [2]; Molar ratio (Nucleotide/UCP) 0.747006, pH 6.0, 20 °C): -12.3158
isotherm data point (enthalpy change per injection) (UCP1 [2]; Molar ratio (Nucleotide/UCP) 0.811976, pH 6.0, 20 °C): -11.9274
isotherm data point (enthalpy change per injection) (UCP1 [2]; Molar ratio (Nucleotide/UCP) 0.877378, pH 6.0, 20 °C): -11.0392
isotherm data point (enthalpy change per injection) (UCP1 [2]; Molar ratio (Nucleotide/UCP) 0.943214, pH 6.0, 20 °C): -8.777
isotherm data point (enthalpy change per injection) (UCP1 [2]; Molar ratio (Nucleotide/UCP) 1.00949, pH 6.0, 20 °C): -7.389
isotherm data point (enthalpy change per injection) (UCP1 [2]; Molar ratio (Nucleotide/UCP) 1.0762, pH 6.0, 20 °C): -6.878
isotherm data point (enthalpy change per injection) (UCP1 [2]; Molar ratio (Nucleotide/UCP) 1.14336, pH 6.0, 20 °C): -5.2039
isotherm data point (enthalpy change per injection) (UCP1 [2]; Molar ratio (Nucleotide/UCP) 1.21096, pH 6.0, 20 °C): -4.2804
isotherm data point (enthalpy change per injection) (UCP1 [2]; Molar ratio (Nucleotide/UCP) 1.27901, pH 6.0, 20 °C): -2.298
isotherm data point (enthalpy change per injection) (UCP1 [2]; Molar ratio (Nucleotide/UCP) 1.34751, pH 6.0, 20 °C): -2.606
isotherm data point (enthalpy change per injection) (UCP1 [2]; Molar ratio (Nucleotide/UCP) 1.41647, pH 6.0, 20 °C): -2.5907
isotherm data point (enthalpy change per injection) (UCP1 [2]; Molar ratio (Nucleotide/UCP) 1.48589, pH 6.0, 20 °C): -0.9936
isotherm data point (enthalpy change per injection) (UCP1 [2]; Molar ratio (Nucleotide/UCP) 1.55577, pH 6.0, 20 °C): -1.473
isotherm data point (enthalpy change per injection) (UCP1 [2]; Molar ratio (Nucleotide/UCP) 1.62611, pH 6.0, 20 °C): -0.9907
isotherm data point (enthalpy change per injection) (UCP1 [2]; Molar ratio (Nucleotide/UCP) 1.69692, pH 6.0, 20 °C): -0.3592
isotherm data point (enthalpy change per injection) (UCP1 [2]; Molar ratio (Nucleotide/UCP) 1.76819, pH 6.0, 20 °C): -0.2978
isotherm data point (enthalpy change per injection) (UCP1 [2]; Molar ratio (Nucleotide/UCP) 1.83995, pH 6.0, 20 °C): 0.5154
isotherm data point (enthalpy change per injection) (UCP1 [2]; Molar ratio (Nucleotide/UCP) 1.91217, pH 6.0, 20 °C): 0.06373
isotherm data point (enthalpy change per injection) (UCP1 [2]; Molar ratio (Nucleotide/UCP) 1.98488, pH 6.0, 20 °C): 0.2135
Molecule: Nc1nc2c(ncn2[C@@H]2O[C@H](COP(=O)(O)OP(=O)(O)OP(=O)(O)O)[C@@H](O)[C@H]2O)c(=O)[nH]1 [GTP, guanosine triphosphate]

Kd (UCP1 [2]; [4]): 2.86 ± 0.49 µM
Kd (UCP1 [2]; [5]): 3.37 µM and 2.82 µM and 2.4 µM
Molecule: O=c1ccn([C@@H]2O[C@H](COP(=O)(O)OP(=O)(O)OP(=O)(O)O)[C@@H](O)[C@H]2O)c(=O)[nH]1 [UTP, uridine triphosphate]

binding result [3]: binds
B1: Pro-macrobody PMb65 (VHH)
VHH: QVQLVESGGGLVQAGGSLRLSCAPSGRTSSTYTMGWFRQAPGKEREFVAAISWTGTPYYADSVKGRFTISRDNAKNTVYLQMNSLKPEDTAVYYCAAARPGLFIFVSDYARTAKYDYWGQGTQVTVPP
notes: llama nanobody CA9865; Expressed from the vector pBXNPHM3 (Addgene 110099); also called CA9865; source: E. coli MC1061, purified (Ni-NTA, 3C cleavage, Strep-Tactin XT); not shown: His-tagged MBP, N-terminal, cleaved
